Values of other authors, collected in patent publication US6017948A, “Water-miscible pharmaceutical compositions” (Supergen, Inc., priority 1998, dated 2000).

Columns and labels:
[1] = test system: refractory ovarian cancer; settings: single-agent phase II
head and neck cancer = settings: single-agent phase II
breast cancer = settings: single-agent phase II
[2] = test system: previously untreated non-small-cell lung cancer; settings: single-agent phase II
animals = settings: chronic high doses (more than 100 mg/kg)

Compound | response rates (complete and partial) [1] | effect on tubulin polymer / microtubule assembly (tubulin polymer) | response rates (complete and partial) (head and neck cancer) | response rates (complete and partial) (breast cancer) | response rates (complete and partial) [2] | toxic effects (animals)
CC(=O)O[C@H]1C(=O)[C@@]2(C)[C@H]([C@H](OC(=O)c3ccccc3)[C@]3(O)C[C@H](OC(=O)[C@H](O)[C@@H](NC(=O)c4ccccc4)c4ccccc4)C(C)=C1C3(C)C)[C@]1(OC(C)=O)CO[C@@H]1C[C@@H]2O [paclitaxel] | Encouraging response rates | stabilizes the tubulin polymer and promotes microtubule assembly | Encouraging response rates | Encouraging response rates | Encouraging response rates | 
CCCCC(CC)COC(=O)c1ccccc1C(=O)OCC(CC)CCCC (stereo not drawn) [DEHP, diethylhexylphthalate] |  |  |  |  |  | growth retardation, liver weight increase, liver damage, testicular atrophy, teratogenicity, and carcinogenicity
